Experimental data: PubChem BioAssay (NCI)
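Cells were grown in 96-well plates and exposed to each compound for 48 hours at five concentrations; endpoints were interpolated linearly between bracketing concentrations, or set to the highest concentration if not reached. The concentration for full growth arrest is given as TGI.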

What was measured:
Assay in all cases: NCI-60 cell line screen, 48 h
CAKI-1 renal = test system: CAKI-1 renal
UACC-62 melanoma = test system: UACC-62 melanoma
UACC-257 melanoma = test system: UACC-257 melanoma
OVCAR-8 ovarian = test system: OVCAR-8 ovarian
A498 renal = test system: A498 renal
CCRF-CEM leukemia = test system: CCRF-CEM leukemia
DMS 114 small cell lung = test system: DMS 114 small cell lung
NCI-H522 lung = test system: NCI-H522 lung
U251 CNS = test system: U251 CNS
HT29 colon = test system: HT29 colon
RXF-631 renal = test system: RXF-631 renal
HCT-116 colon = test system: HCT-116 colon
MALME-3M melanoma = test system: MALME-3M melanoma
SNB-19 CNS = test system: SNB-19 CNS
EKVX NSCLC = test system: EKVX NSCLC
786-0 renal = test system: 786-0 renal
SF-295 CNS = test system: SF-295 CNS
MOLT-4 leukemia = test system: MOLT-4 leukemia
K-562 leukemia = test system: K-562 leukemia
KM12 colon = test system: KM12 colon
COLO 205 colon = test system: COLO 205 colon
SK-MEL-2 melanoma = test system: SK-MEL-2 melanoma
ACHN renal = test system: ACHN renal
HOP-62 NSCLC = test system: HOP-62 NSCLC
OVCAR-5 ovarian = test system: OVCAR-5 ovarian
SK-MEL-28 melanoma = test system: SK-MEL-28 melanoma
SK-OV-3 ovarian = test system: SK-OV-3 ovarian
HL-60(TB) leukemia = test system: HL-60(TB) leukemia
HOP-18 NSCLC = test system: HOP-18 NSCLC
HCC-2998 colon = test system: HCC-2998 colon
A549 NSCLC = test system: A549 NSCLC
UO-31 renal = test system: UO-31 renal
OVCAR-4 ovarian = test system: OVCAR-4 ovarian
TK-10 renal = test system: TK-10 renal
RPMI-8226 leukemia = test system: RPMI-8226 leukemia
HOP-92 NSCLC = test system: HOP-92 NSCLC
OVCAR-3 ovarian = test system: OVCAR-3 ovarian
SW-620 colon = test system: SW-620 colon
M14 melanoma = test system: M14 melanoma
KM20L2 colon = test system: KM20L2 colon
M19-MEL melanoma = test system: M19-MEL melanoma
SNB-75 CNS = test system: SNB-75 CNS
HCT-15 colon = test system: HCT-15 colon
LXFL 529 NSCLC = test system: LXFL 529 NSCLC
IGROV1 ovarian = test system: IGROV1 ovarian
SNB-78 CNS = test system: SNB-78 CNS
SF-539 CNS = test system: SF-539 CNS
SF-268 CNS = test system: SF-268 CNS
NCI-H23 lung = test system: NCI-H23 lung
SK-MEL-5 melanoma = test system: SK-MEL-5 melanoma
NCI-H226 lung = test system: NCI-H226 lung
NCI-H460 lung = test system: NCI-H460 lung
DMS 273 small cell lung = test system: DMS 273 small cell lung
SN12C renal = test system: SN12C renal
RXF 393 renal = test system: RXF 393 renal
LOX IMVI melanoma = test system: LOX IMVI melanoma
DLD-1 colon = test system: DLD-1 colon

## O=c1c2ccccc2nc(-c2ccc(Br)cc2)n1NC1OC(CO)C(O)C(O)C1O (centres undefined)
CAKI-1 renal
  TGI: > 100 µM
UACC-62 melanoma
  TGI: > 100 µM
UACC-257 melanoma
  TGI: > 100 µM
OVCAR-8 ovarian
  TGI: > 100 µM
A498 renal
  TGI: > 100 µM
CCRF-CEM leukemia
  TGI: > 100 µM
DMS 114 small cell lung
  TGI: > 100 µM
NCI-H522 lung
  TGI: > 100 µM
U251 CNS
  TGI: > 100 µM
HT29 colon
  TGI: > 100 µM
RXF-631 renal
  TGI: > 100 µM
HCT-116 colon
  TGI: > 100 µM
MALME-3M melanoma
  TGI: > 100 µM
SNB-19 CNS
  TGI: > 100 µM
EKVX NSCLC
  TGI: > 100 µM
786-0 renal
  TGI: > 100 µM
SF-295 CNS
  TGI: > 100 µM
MOLT-4 leukemia
  TGI: > 100 µM
K-562 leukemia
  TGI: > 100 µM
KM12 colon
  TGI: > 100 µM
COLO 205 colon
  TGI: > 100 µM
SK-MEL-2 melanoma
  TGI: > 100 µM
ACHN renal
  TGI: > 100 µM
HOP-62 NSCLC
  TGI: > 100 µM
OVCAR-5 ovarian
  TGI: > 100 µM
SK-MEL-28 melanoma
  TGI: > 100 µM
SK-OV-3 ovarian
  TGI: > 100 µM
HL-60(TB) leukemia
  TGI: > 100 µM
HOP-18 NSCLC
  TGI: > 100 µM
HCC-2998 colon
  TGI: > 100 µM
A549 NSCLC
  TGI: > 100 µM
UO-31 renal
  TGI: > 100 µM
OVCAR-4 ovarian
  TGI: > 100 µM
TK-10 renal
  TGI: > 100 µM
RPMI-8226 leukemia
  TGI: > 100 µM
HOP-92 NSCLC
  TGI: > 100 µM
OVCAR-3 ovarian
  TGI: > 100 µM
SW-620 colon
  TGI: > 100 µM
M14 melanoma
  TGI: > 100 µM
KM20L2 colon
  TGI: > 100 µM
M19-MEL melanoma
  TGI: > 100 µM
SNB-75 CNS
  TGI: > 100 µM
HCT-15 colon
  TGI: > 100 µM
LXFL 529 NSCLC
  TGI: > 100 µM
IGROV1 ovarian
  TGI: > 100 µM
SNB-78 CNS
  TGI: > 100 µM
SF-539 CNS
  TGI: > 100 µM
SF-268 CNS
  TGI: > 100 µM
NCI-H23 lung
  TGI: > 100 µM
SK-MEL-5 melanoma
  TGI: > 100 µM
NCI-H226 lung
  TGI: > 100 µM
NCI-H460 lung
  TGI: > 100 µM
DMS 273 small cell lung
  TGI: > 100 µM
SN12C renal
  TGI: > 100 µM

## CCC1=C(C)/C(=C/c2[nH]c(CBr)c(CC)c2C)N=C1CBr
CAKI-1 renal
  TGI: 25.8 µM
UACC-62 melanoma
  TGI: 24.6 µM
RXF 393 renal
  TGI: 54 µM
OVCAR-8 ovarian
  TGI: 26.6 µM
CCRF-CEM leukemia
  TGI: 9.55 µM
DMS 114 small cell lung
  TGI: 27.8 µM
NCI-H522 lung
  TGI: 9.67 µM
U251 CNS
  TGI: 24.6 µM
HT29 colon
  TGI: 26.7 µM
RXF-631 renal
  TGI: > 100 µM
MALME-3M melanoma
  TGI: 41 µM
SNB-19 CNS
  TGI: 33.9 µM
EKVX NSCLC
  TGI: 49.1 µM
786-0 renal
  TGI: 40.4 µM
SF-295 CNS
  TGI: 42.7 µM
MOLT-4 leukemia
  TGI: 27.6 µM
K-562 leukemia
  TGI: > 100 µM
KM12 colon
  TGI: 26.9 µM
COLO 205 colon
  TGI: 30.2 µM
SK-MEL-2 melanoma
  TGI: 48.5 µM
LOX IMVI melanoma
  TGI: > 100 µM
HOP-62 NSCLC
  TGI: 34.8 µM
SK-MEL-28 melanoma
  TGI: 34.2 µM
SK-OV-3 ovarian
  TGI: 45 µM
HL-60(TB) leukemia
  TGI: 25.6 µM
HOP-18 NSCLC
  TGI: 24.7 µM
HCC-2998 colon
  TGI: 26.3 µM
A549 NSCLC
  TGI: 36.7 µM
UO-31 renal
  TGI: 15.8 µM
DLD-1 colon
  TGI: 29 µM
OVCAR-4 ovarian
  TGI: > 100 µM
TK-10 renal
  TGI: 37.6 µM
RPMI-8226 leukemia
  TGI: 36.7 µM
HOP-92 NSCLC
  TGI: 26.7 µM
OVCAR-3 ovarian
  TGI: 30.1 µM
SW-620 colon
  TGI: 25.3 µM
M14 melanoma
  TGI: 33.1 µM
KM20L2 colon
  TGI: 32.1 µM
M19-MEL melanoma
  TGI: 33.7 µM
SNB-75 CNS
  TGI: 55.9 µM
HCT-15 colon
  TGI: 27.2 µM
LXFL 529 NSCLC
  TGI: 17.9 µM
IGROV1 ovarian
  TGI: 38.1 µM
SF-539 CNS
  TGI: 38.2 µM
SF-268 CNS
  TGI: 36.8 µM
NCI-H23 lung
  TGI: 46.7 µM
SK-MEL-5 melanoma
  TGI: 30.5 µM
NCI-H460 lung
  TGI: 38.9 µM
DMS 273 small cell lung
  TGI: > 100 µM
SN12C renal
  TGI: 28.3 µM
